This is an account of results in US8455475B2 (Gruenenthal GmbH, priority 2009, dated 2013).

The target of assay [1] is T1, human B1R (bradykinin receptor 1) (Homo sapiens, UniProt P46663).
T1 construct: expressed in transfected cells; host or cells: CHO K1 cells
T1 sequence (P46663 1-353): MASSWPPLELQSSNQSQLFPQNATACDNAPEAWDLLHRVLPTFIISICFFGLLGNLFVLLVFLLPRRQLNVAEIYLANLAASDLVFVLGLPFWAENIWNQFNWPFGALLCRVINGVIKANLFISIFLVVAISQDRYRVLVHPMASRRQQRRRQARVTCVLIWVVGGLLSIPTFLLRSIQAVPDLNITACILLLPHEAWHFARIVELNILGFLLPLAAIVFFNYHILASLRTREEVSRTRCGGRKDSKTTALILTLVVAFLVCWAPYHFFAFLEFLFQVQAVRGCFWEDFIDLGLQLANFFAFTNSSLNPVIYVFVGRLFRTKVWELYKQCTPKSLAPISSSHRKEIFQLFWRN
Kind of assay: FLIPR Ca2+ assay (Fluo-4) on CHO K1 cells stably transfected with the human B1R gene (hB1R cells): % inhibition at 10 μM / IC50, agonist Lys-Des-Arg9-bradykinin. In kind it is cell-based. The conditions noted are these: CHO-K1, human B1R. On the procedure: The agonistic or antagonistic action of substances can be quantified on the bradykinin receptor 1 (B1R) of the human and rat species with ectopically expressing cell lines (CHO K1 cells) and with the aid of a Ca^2+-sensitive dyestuff (Fluo-4) in a fluorescent imaging plate reader (FLIPR). The figure in % activation is based on the Ca^2+ signal after addition of Lys-Des-Arg^9-bradykinin (0.5 nM) or Des-Arg^9-bradykinin (100 nM). Antagonists lead to a suppression of the Ca^2+ inflow after addition of the agonist. % inhibition compared with the maximum achievable inhibition is stated.
The agonistic or antagonistic action of substances can be determined on the bradykinin receptor 1 (B1R) of the human and rat species with the following assay. In accordance with this assay, the Ca^2+ inflow through the channel is quantified with the aid of a Ca^2+-sensitive dyestuff (type Fluo-4, Molecular Probes Europe BV, Leiden, Holland) in a fluorescent imaging plate reader (FLIPR, Molecular Devices, Sunnyvale, USA).
Chinese hamster ovary cells (CHO K1 cells) transfected stably with the human B1R gene (hB1R cells) or the B1R gene of the rat (rB1R cells) are used. For functional studies, these cells are plated out on black 96-well plates with a clear base (BD Biosciences, Heidelberg, Germany or Greiner, Frickenhausen, Germany) in a density of 20,000-35,000 cells/well. The cells are left overnight at 37° C. and 5% CO2 in culture medium (hB1R cells: Nutrient Mixture Ham's F12, Gibco Invitrogen GmbH, Karlsruhe, Germany or DMEM, Sigma-Aldrich, Taufkirchen, Germany; rB1R cells: D-MEM/F12, Gibco Invitrogen GmbH, Karlsruhe, Germany) with 10 vol. % FBS (foetal bovine serum, Gibco Invitrogen GmbH, Karlsruhe, Germany or PAN Biotech GmbH, Aidenbach, Germany). On the following day, the cells are loaded for 60 min at 37° C. with 2.13 μM Fluo-4 (Molecular Probes Europe BV, Leiden Holland) in HBSS buffer (Hank's buffered saline solution, Gibco Invitrogen GmbH, Karlsruhe, Germany) with 2.5 mM probenecid (Sigma-Aldrich, Taufkirchen, Germany) and 10 mM HEPES (Sigma-Aldrich, Taufkirchen, Germany). The plates are then washed 2× with HBSS buffer, and HBSS buffer which additionally contains 0.1% BSA (bovine serum albumin; Sigma-Aldrich, Taufkirchen, Germany), 5.6 mM glucose and 0.05% gelatine (Merck KGaA, Darmstadt, Germany) is added. After a further incubation of 20 minutes at room temperature, the plates are inserted into the FLIPR for the Ca^2+ measurement. Alternatively, the plates are washed with buffer A (15 mM HEPES, 80 mM NaCl, 5 mM KCl, 1.2 mM CaCl2, 0.7 mM MgSO4, 2 g/l glucose, 2.5 mM probenecid), buffer A is added and the plates are loaded with 2.5 μM Fluo-4 and 0.025% Pluronic F127 (Sigma-Aldrich, Taufkirchen, Germany). Thereafter, the cells are washed 2× with buffer A and incubated for 30 minutes at room temperature with buffer A, which additionally contains 0.05% BSA and 0.05% gelatine, and thereafter inserted into the FLIPR for the Ca^2+ measurement. The Ca^2+-dependent fluorescence is measured here before and after addition of substances (λex=488 nm, λem=540 nm). Quantification is by measurement of the highest fluorescence intensity (FC, fluorescence counts) over time.
The FLIPR protocol consists of 2 additions of substance. Test substances (10 μM) are first pipetted on to the cells and the Ca^2+ inflow is compared with the control (hB1R: Lys-Des-Arg^9-bradykinin>=50 nM; rB1R: Des-Arg^9-bradykinin 10 μM). This gives the result in % activation based on the Ca^2+ signal after addition of Lys-Des-Arg^9-bradykinin (>=50 nM) or Des-Arg^9-bradykinin (10 μM). After incubation for 10-20 minutes, Lys-Des-Arg^9-bradykinin (hB1R) or Des-Arg^9-bradykinin (rB1R) in the concentration of the EC80 is applied and the inflow of Ca^2+ is likewise determined. Antagonists lead to a suppression of the Ca^2+ inflow. % inhibition compared with the maximum achievable inhibition is calculated.
For determination of the IC50 value, the substances are added in various concentrations. […]

Assay [2] addresses T2, rat B1R (bradykinin receptor 1) (Rattus norvegicus, UniProt P97583).
T2 construct: expressed in transfected cells; host or cells: CHO K1 cells
T2 sequence (P97583 1-337): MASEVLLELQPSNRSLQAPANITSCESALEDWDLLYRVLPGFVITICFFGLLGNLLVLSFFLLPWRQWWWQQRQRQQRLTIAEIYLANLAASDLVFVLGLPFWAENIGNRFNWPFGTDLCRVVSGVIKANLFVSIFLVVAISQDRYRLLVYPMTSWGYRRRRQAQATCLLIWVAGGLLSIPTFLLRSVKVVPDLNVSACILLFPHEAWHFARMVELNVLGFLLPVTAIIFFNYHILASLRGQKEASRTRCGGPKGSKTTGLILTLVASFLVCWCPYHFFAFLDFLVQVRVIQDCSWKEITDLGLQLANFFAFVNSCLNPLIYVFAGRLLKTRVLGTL
Kind of assay: FLIPR Ca2+ assay (Fluo-4) on CHO K1 cells stably transfected with the B1R gene of the rat (rB1R cells): % inhibition at 10 μM / IC50, agonist Des-Arg9-bradykinin. The format is cell-based. As to conditions: CHO-K1, rat B1R. The method in brief:
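Antagonism is measured as the drop in peak Fluo-4 Ca2+ signal when the EC80 agonist follows 10–20 min compound exposure. The single-point screen uses 10 μM; IC50 uses several concentrations. Values are given as % of maximal achievable inhibition.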

Each structure is given as a SMILES string.

With `O=C(c1ccc2c(c1)[C@H](N1Cc3cccc(Cl)c3C1=O)CCC2)N1CCC2(CC1)CCN(c1ccncc1)CC2` [Example H-14, 7-chloro-2-[(1R)-7-(9-pyridin-4-yl-3,9-diazaspiro[5.5]undecane-3-carbonyl)-1,2,3,4-tetrahydro-naphthalen-1-yl]-2,3-dihydro-isoindol-1-one], the values for the inhibition at 10 µM in assay [1] and in assay [2] were 91% and 101%, respectively.

Regarding `O=C(c1ccc2c(c1)[C@@H](N1Cc3cccc(Cl)c3C1=O)CCC2)N1CCC2(CCN(c3ccncc3)CC2)C1` [Example H-15, 7-chloro-2-[(1S)-7-(8-pyridin-4-yl-3,8-diazaspiro[4.5]decane-3-carbonyl)-1,2,3,4-tetrahydro-naphthalen-1-yl]-2,3-dihydro-isoindol-1-one], the figures for the inhibition at 10 µM in assay [1] and in assay [2] were 59% and 11%, respectively.

Consider `COc1cc(C)c(S(=O)(=O)N[C@@H]2CCCc3ccc(C(=O)N4CCC5(CCN(c6ccncc6)CC5)C4)cc32)c(C)c1` [Example H-16, 4-methoxy-2,6-dimehtyl-N-[(1R)-7-(8-pyridin-4-yl-3,8-diazaspiro[4.5]decane-3-carbonyl)-1,2,3,4-tetrahydro-naphthalen-1-yl]-benzenesulfonic acid amide], for which the inhibition at 10 µM came to 100% in assay [1] and 102% in assay [2].

`COc1cc(C)c(S(=O)(=O)N[C@@H]2CCCc3ccc(C(=O)N4CCC5(CC4)CCN(c4ccncc4)CC5)cc32)c(C)c1` [Example H-17, 4-methoxy-2,6-dimethyl-N-[(1R)-7-(9-pyridin-4-yl-3,9-diazaspiro[5.5]undecane-3-carbonyl)-1,2,3,4-tetrahydro-naphthalen-1-yl]-benzenesulfonic acid amide]: the values for the inhibition at 10 µM in assay [1] and in assay [2] were 98% and 102%, respectively.

With `COc1cc(C)c(S(=O)(=O)N[C@H]2CCCc3ccc(C(=O)N4CCC5(CCN(c6ccncc6)CC5)C4)cc32)c(C)c1` [Example H-18, 4-methoxy-2,6-dimethyl-N-[(1S)-7-(8-pyridin-4-yl-3,8-diazaspiro[4.5]decane-3-carbonyl)-1,2,3,4-tetrahydro-naphthalen-1-yl]-benzenesulfonic acid amide], the figures for the inhibition at 10 µM in assay [1] and in assay [2] were 96% and 104%, respectively.

As to `COc1cc(C)c(S(=O)(=O)N[C@H]2CCCc3ccc(C(=O)N4CCC5(CC4)CCN(c4ccncc4)CC5)cc32)c(C)c1` [Example H-19, 4-methoxy-2,6-dimethyl-N-[(1S)-7-(9-pyridin-4-yl-3,9-diazaspiro[5.5]undecane-3-carbonyl)-1,2,3,4-tetrahydro-naphthalen-1-yl]-benzenesulfonic acid amide], the inhibition at 10 µM in assay [1] was determined as 99%; in assay [2], 102%.

`O=C(N[C@H]1CCc2ccc(C(=O)N3CCC4(CCN(c5ccncc5)CC4)C3)cc21)c1ccccc1Cl` [Example H-20, 2-chloro-N-[(1S)-6-(8-pyridin-4-yl-3,8-diazaspiro[4.5]decane-3-carbonyl)-2,3-dihydro-1H-indecn-1-yl]-benzamide]: the inhibition at 10 µM in assay [1] is 100%; in assay [2] it was 105%.

As to `O=C(N[C@@H]1CCc2ccc(C(=O)N3CCC4(CCN(c5ccncc5)CC4)C3)cc21)c1ccccc1Cl` [Example H-21, 2-chloro-N-[(1R)-6-(8-pyridin-4-yl-3,8-diazaspiro[4.5]decane-3-carbonyl)-2,3-dihydro-1H-inden-1-yl]-benzamide], the inhibition at 10 µM was 100% in assay [1] and 105% in assay [2].

On to `O=C(N[C@@H]1CCc2ccc(C(=O)N3CCC4(CCCN(c5ccncc5)C4)CC3)cc21)c1ccccc1Cl` [Example H-26, 2-chloro-N-[(1R)-6-(8-pyridin-4-yl-3,8-diazaspiro[5.5]undecane-3-carbonyl)-2,3-dihydro-1H-inden-1-yl]-benzamide], for which the results for the inhibition at 10 µM in assay [1] and in assay [2] were 46% and 101%, respectively.

As for `O=C(N[C@@H]1CCc2ccc(C(=O)N3CC4(CCN(c5ccncc5)CC4)C3)cc21)c1ccccc1Cl` [Example H-27, 2-chloro-N-[(1R)-6-(7-pyridin-4-yl-2,7-diazaspiro[3.5]nonane-2-carbonyl)-2,3-dihydro-1H-inden-1-yl]-benzamide], the inhibition at 10 µM in assay [1] was found to be 100%; in assay [2], 102%.

Regarding `CN1CCC(N2CCC3(CCN(C(=O)c4ccc5c(c4)[C@H](NC(=O)c4ccccc4Cl)CC5)CC3)CC2)CC1` [Example H-28, 2-chloro-N-[(1R)-6-[9-(1-methyl-piperidin-4-yl)-3,9-diazaspiro[5.5]undecane-3-carobnyl]-2,3-dihydro-1H-inden-1-yl]-benzamide], the inhibition at 10 µM in assay [1] turned out to be 57%; in assay [2], 102%.

As for `CN1CCN(C(=O)C2CCC3(CC2)CCN(C(=O)c2ccc4c(c2)[C@H](NC(=O)c2ccccc2Cl)CC4)CC3)CC1` [Example H-29, 2-chloro-N-[(1R)-6-[9-(4-methyl-piperazine-1-carbonyl)-3-azaspiro[5.5]undecane-3-carbonyl]-2,3-dihydro-1H-inden-1-yl]-benzamide], the inhibition at 10 µM in assay [1] turned out to be 33%; in assay [2] it was 55%.

In the case of `CC1(C)Cc2ccc(C(=O)N3CCC4(CCN(c5ccncc5)CC4)C3)cc2C1NC(=O)c1ccccc1Cl` (stereo not shown) [Example H-47, 2-chloro-N-[2,2-dimethyl-6-(8-pyridin-4-yl-3,8-diazaspiro[4.5]decane-3-carbonyl)-1,3-dihydro-inden-1-yl]-benzamide], the results for the inhibition at 10 µM in assay [1] and in assay [2] were 99% and 101%, respectively.

For the compound `O=C(NC1CCc2ccc(C(=O)N3CCC4(CCN(c5ccc(C(F)(F)F)cn5)CC4)C3)cc21)c1ccccc1Cl` (stereo not shown) [Example H-48, 2-chloro-N-[6-[8-[5-(trifluoromethyl)-pyridin-2-yl]-3,8-diazaspiro[4.5]decane-3-carbonyl]-2,3-dihydro-1H-inden-1-yl]-benzamide], the inhibition at 10 µM amounted to 63% in assay [1] and 97% in assay [2].
